The subject of the assay is DsRed-express-labeled E. coli RP437. In words: Confocal imaging of E. coli biofilms on stainless steel coupons (COMSTAT). It counts as cell-based, Escherichia coli. The conditions noted are these: 200 μM, 24 h at 37° C., CLSM/COMSTAT. The protocol: The effects of SHLs upon the bacterial biofilm were examined; more specifically, the effect of SHLs upon the biofilm architecture. […] These studies were conducted by static biofilm assays employing crystal violet staining that indicates the total biomass that resides within a biofilm but provides no indication regarding the topology of the biofilms. To elucidate the topological features assumed by the E. coli RP437 biofilm in the presence of SHLs and BF8 48, studies of biofilms consisting of DsRed-express-labeled E. coli RP437 that is fluorescent and can be easily visualized by confocal laser scanning microscopy (CLSM) were performed. […] Further, the stacked images in vinyl-SHL 3 indicating the maximum thickness of the biofilm is considerably smaller than the biofilms in BF8 48 and the untreated E. coli samples. We developed the biofilms consisting of DsRed-express-labeled E. coli on stainless steel coupons (316 L, 1 in×1 in.) for 24 h at 37° C. that were treated with BF8 48 or SHLs or were left untreated. All the samples were analyzed with CLSM (see FIG. 8) and the maximum thickness of biofilms calculated using the COMSTAT software. […] Moreover, butyl-SHL 8 and butoxy-SCPA 46 reduce the biofilm thickness by 38% and 27%, respectively.
An overnight culture of E. coli RP437 pRSH103 grown in LB media (OD600 of 1.0) containing tetracycline (3 μg/mL) was subsequently sub-cultured to an OD600 of 0.04 (1:100 dilution with LB media). To each well in the solvent resistant polypropylene or polystyrene-based 24-well microtiter plates was added 200 μM synthetic molecules in DMSO solution respectively. In addition, to each of the wells containing the known concentrations of synthetic molecules was added 2 mL of the sub-cultured bacteria and the contents in each well were gently mixed. […] The fluorescent emission was detected with a LP 560 nm emission filter. The coupons were gently placed upside down on a microscope cover glass (24×60 mm, No. 2, VWR International LLC, West Chester, Pa., USA) and analyzed with CLSM. […]

Each structure is given as a SMILES string.

With `CC1=C(Br)/C(=C/Br)OC1=O` [BF8 48, reference compound], the “reduction of the maximum thickness of biofilm” value was determined as 17%. For `CCCCOc1c(NC2CCCC2)c(=O)c1=O` [butoxy-SCPA 46], the “reduction of the maximum thickness of biofilm” value is on record as 27%.
